Laboratory results: US5656603A (Loyola University of Chicago, priority 1995, dated 1997)

Key:
Format in all cases: biochemical
prolyl oligopeptidase = prolyl oligopeptidase (Ovis aries, UniProt A0ACI6PCU6); experiment: Specificity of apstatin: prolyl oligopeptidase; conditions: purified, lamb kidney; Bk, pH 6.8, HPLC-1
Excerpt: (§1) Enzymes--Membrane-bound aminopeptidase P was purified to homogeneity from bovine lung (14) and from rat lung. Partially purified membrane-bound aminopeptidase P from human lung was obtained by treatment of lung microsomes with phosphatidylinositol-specific phospholipase C (B. thuringiensis) (ICN, Costa Mesa, Calif.) followed by centrifugation as described previously (14). Membrane dipeptidase was purified from rat lung microsomes (manuscript in preparation). Recombinant E. coli aminopeptidase P (22) and purified lamb kidney prolyl oligopeptidase (23) were generally supplied by Dr. Tadashi Yoshimoto (Nagasaki University). Purified porcine kidney prolidase and purified porcine kidney aminopeptidase M was obtained from Sigma (St. Louis, Mo.).
(§2) Specificity of Apstatin--Apstatin was assayed for its ability to inhibit several other peptidases. […] Unless otherwise indicated, the source of each enzyme activity was a detergent extract of bovine lung prepared as described in (12-13). Activities were determined by a modification of the fluorescent assay described above (indicated by "FLUO") or by HPLC separation and quantitation of reaction products using the method described in (12) (method "HPLC-1") or the method described below (method "HPLC-2"). […]

[1] = target: T1, partially purified human lung membrane-bound aminopeptidase P (Homo sapiens, UniProt O43895); experiment: Aminopeptidase P inhibition, release of arginine from Arg-Pro-Pro (fluorescent assay)
T1 construct: from tissue; host or cells: human lung microsomes
T1 sequence (O43895 22-674): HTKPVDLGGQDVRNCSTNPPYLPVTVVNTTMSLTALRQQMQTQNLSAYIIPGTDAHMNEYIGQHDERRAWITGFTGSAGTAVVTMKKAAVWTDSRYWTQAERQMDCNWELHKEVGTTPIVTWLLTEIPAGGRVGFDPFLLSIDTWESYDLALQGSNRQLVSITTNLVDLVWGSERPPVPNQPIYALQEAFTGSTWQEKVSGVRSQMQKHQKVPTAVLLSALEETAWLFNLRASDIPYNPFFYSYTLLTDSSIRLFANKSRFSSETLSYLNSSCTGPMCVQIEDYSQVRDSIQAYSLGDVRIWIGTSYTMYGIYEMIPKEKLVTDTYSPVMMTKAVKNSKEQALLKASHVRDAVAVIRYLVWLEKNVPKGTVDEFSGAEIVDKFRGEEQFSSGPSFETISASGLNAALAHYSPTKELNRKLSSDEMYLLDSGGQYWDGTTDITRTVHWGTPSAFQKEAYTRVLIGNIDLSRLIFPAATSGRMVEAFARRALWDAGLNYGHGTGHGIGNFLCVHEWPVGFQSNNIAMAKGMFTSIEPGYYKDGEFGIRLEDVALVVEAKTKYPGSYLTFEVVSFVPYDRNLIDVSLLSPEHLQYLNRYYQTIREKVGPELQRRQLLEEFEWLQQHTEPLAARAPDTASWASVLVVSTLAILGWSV
Description: (§3) The IC50 of the compound of the present invention in relation to aminopeptidase P was also determined. […] The specificity of the compound of the present invention for other aminopeptidases was similarly determined as described in the Experimental Procedures herein.
as §1
(§4) Enzyme Kinetics--Aminopeptidase P activity was determined by measuring the release of arginine from Arg-Pro-Pro by a fluorescent assay described previously (14). […] Each mixture was run in duplicate. Aliquots were removed from each incubation mixture at various times and assayed for the amount of arginine present to determine the reaction velocity. In general, reaction velocities were calculated from data representing less than 20% cleavage of substrate. Ki and Ki ' (=αKi) were determined from plots of 1/v versus concentration of inhibitor "i" (26) and S/v versus concentration of inhibitor "i" (27), respectively. These parameters were also determined from the slope replot and 1/v-intercept replot, respectively, of the 1/v versus 1/S plot (28). […] The values from the two treatments of the data were averaged for each experiment. Experiments for each enzyme preparation were performed twice and the results averaged.

[2] = target: T2, purified rat lung membrane-bound aminopeptidase P (Rattus norvegicus, UniProt Q99MA2); experiment: as above
T2 construct: from tissue; host or cells: rat lung
T2 sequence (Q99MA2 23-674): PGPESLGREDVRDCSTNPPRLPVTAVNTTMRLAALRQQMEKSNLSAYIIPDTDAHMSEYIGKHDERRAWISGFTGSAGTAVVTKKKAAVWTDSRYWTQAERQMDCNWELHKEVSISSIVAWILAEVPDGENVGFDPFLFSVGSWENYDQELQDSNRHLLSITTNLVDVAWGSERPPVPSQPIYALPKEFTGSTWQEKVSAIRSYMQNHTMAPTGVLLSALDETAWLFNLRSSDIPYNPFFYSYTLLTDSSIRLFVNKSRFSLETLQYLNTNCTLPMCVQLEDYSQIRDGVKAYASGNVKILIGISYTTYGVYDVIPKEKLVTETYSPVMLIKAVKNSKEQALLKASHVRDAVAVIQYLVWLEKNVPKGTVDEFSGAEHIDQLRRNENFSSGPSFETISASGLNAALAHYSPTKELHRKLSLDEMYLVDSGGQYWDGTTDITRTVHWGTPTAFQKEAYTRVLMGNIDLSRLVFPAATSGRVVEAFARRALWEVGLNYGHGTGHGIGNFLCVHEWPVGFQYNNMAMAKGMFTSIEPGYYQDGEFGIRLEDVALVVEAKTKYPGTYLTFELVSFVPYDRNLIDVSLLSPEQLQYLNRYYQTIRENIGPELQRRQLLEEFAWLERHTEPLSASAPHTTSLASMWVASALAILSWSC
Description: as §3, §1, §4

microsomal dipeptidase = target: T3, microsomal dipeptidase (Rattus norvegicus, UniProt P31430); experiment: Specificity of apstatin: microsomal (membrane) dipeptidase; conditions: purified, rat lung; Gly-D-Phe, pH 8.0, HPLC-1
T3 construct: Membrane dipeptidase was purified from rat lung microsomes; from tissue; host or cells: rat lung microsomes
T3 sequence (P31430 17-410): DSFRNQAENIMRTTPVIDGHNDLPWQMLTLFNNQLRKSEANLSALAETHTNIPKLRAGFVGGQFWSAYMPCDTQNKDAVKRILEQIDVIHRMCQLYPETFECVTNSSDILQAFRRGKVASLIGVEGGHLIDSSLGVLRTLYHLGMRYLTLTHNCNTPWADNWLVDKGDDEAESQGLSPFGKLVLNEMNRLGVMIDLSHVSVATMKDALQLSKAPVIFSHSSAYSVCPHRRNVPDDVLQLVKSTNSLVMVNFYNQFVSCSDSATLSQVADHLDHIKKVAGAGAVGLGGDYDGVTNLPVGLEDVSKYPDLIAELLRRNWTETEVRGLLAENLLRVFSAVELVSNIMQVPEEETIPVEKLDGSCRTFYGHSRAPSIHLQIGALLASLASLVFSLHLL
Excerpt: as §1, §2

Sequence of prolyl oligopeptidase (A0ACI6PCU6 entry or part of it): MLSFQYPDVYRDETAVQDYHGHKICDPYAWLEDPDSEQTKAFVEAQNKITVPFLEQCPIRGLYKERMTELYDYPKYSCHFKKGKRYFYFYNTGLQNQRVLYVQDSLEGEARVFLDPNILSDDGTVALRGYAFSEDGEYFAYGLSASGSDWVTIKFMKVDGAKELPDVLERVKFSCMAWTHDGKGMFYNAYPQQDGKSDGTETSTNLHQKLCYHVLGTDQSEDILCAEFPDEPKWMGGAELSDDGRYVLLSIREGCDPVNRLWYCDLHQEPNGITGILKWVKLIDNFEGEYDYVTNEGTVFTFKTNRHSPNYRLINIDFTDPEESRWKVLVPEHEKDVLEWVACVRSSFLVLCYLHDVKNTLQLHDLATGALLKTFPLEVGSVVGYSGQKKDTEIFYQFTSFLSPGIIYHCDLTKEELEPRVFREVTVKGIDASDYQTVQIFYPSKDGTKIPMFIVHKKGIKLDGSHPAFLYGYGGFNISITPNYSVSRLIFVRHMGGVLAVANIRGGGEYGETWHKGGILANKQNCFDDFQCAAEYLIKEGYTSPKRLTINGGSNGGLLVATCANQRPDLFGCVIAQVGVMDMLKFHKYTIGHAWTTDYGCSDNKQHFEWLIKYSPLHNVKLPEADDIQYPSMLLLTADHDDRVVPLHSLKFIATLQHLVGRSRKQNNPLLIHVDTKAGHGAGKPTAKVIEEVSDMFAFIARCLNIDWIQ

C[C@H](NC(=O)[C@@H]1CCCN1C(=O)[C@@H]1CCCN1C(=O)[C@@H](O)[C@H](N)Cc1ccccc1)C(N)=O [apstatin, N-[(2S, 3R)-3-amino-2-hydroxy-4-phenylbutanoyl]-L-prolyl-L-prolyl-Lalaninamide]
IC50 (prolyl oligopeptidase): > 800 µM | type of inhibition ([1]; human lung aminopeptidase P): linear mixed-type | α (αKi = equilibrium constant for enzyme-inhibitor binding at infinite substrate concentration) ([1]; human lung, partially purified membrane-bound form): 11. | dependence of inhibition on Mn+2 [2]: not dependent on the presence of Mn^+2 | reversibility of inhibition ([2]; 100-fold dilution of a preincubated enzyme-apstatin mixture): indicating reversibility | effect of preincubation on degree of inhibition (time-dependent or slow-tight binding inhibition) ([2]; preincubation of rat aminopeptidase P for up to 2 hr. at 4° C. before addition of substrate): did not increase the degree of inhibition | type of inhibition ([2]; rat lung aminopeptidase P): linear mixed-type | α (αKi = equilibrium constant for enzyme-inhibitor binding at infinite substrate concentration) ([2]; rat lung, purified membrane-bound form): 5.1 | Ki ([2]; rat lung, purified membrane-bound form, substrate Arg-Pro-Pro, 0.1 M Hepes pH 8.0, 39° C.): 2.6 µM | IC50 (microsomal dipeptidase): > 800 µM
